# Values joined by “and” are separate entries in the source; they are usually repeats but may differ in a detail not shown here. Equal entries are not always repeated. Where two headings read alike, the source gives them in different places.
# How the values were obtained:
# [1] = biological target: T1, human ENPP1 (Homo sapiens, UniProt P22413); experiment: Luminescence-based AMP-Glo ENPP1 enzyme inhibition assay with 2′,3′-cGAMP substrate; format: biochemical; settings: 2′,3′-cGAMP 300 µM, ENPP1 5 µM
# T1 construct: purchased Origene
# T1 sequence (P22413 1-925): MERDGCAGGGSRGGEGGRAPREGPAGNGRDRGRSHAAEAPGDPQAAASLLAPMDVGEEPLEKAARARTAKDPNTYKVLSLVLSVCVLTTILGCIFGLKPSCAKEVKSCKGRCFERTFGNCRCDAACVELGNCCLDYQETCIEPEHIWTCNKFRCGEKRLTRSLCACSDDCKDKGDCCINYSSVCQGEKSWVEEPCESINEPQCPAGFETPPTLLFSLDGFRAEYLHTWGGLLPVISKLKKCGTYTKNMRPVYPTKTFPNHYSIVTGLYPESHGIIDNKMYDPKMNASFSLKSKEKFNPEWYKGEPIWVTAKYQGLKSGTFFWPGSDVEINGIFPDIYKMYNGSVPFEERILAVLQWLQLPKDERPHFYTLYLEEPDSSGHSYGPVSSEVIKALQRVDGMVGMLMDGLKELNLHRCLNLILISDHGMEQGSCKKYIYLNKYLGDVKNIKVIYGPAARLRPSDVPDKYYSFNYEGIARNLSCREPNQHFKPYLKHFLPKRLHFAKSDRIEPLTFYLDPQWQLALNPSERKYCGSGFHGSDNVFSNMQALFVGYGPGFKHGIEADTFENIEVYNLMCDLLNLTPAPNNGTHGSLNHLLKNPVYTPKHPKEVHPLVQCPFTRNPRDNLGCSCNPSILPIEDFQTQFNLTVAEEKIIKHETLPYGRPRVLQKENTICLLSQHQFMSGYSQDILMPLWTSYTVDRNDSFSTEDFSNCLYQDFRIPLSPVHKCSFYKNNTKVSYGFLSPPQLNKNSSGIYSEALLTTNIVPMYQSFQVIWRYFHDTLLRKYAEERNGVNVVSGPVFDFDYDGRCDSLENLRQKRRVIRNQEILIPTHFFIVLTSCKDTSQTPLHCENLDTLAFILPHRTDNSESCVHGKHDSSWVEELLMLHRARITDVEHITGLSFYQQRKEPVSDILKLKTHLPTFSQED
# [2] = tested on: Vero cells; experiment: Vero cell cytotoxicity, resazurin dye reduction assay; format: cell-based, African green monkey
# [3] = biological target: T2, M.tb CdnP (Mycobacterium tuberculosis, UniProt P71615); experiment: biochemical
# [4] = tested on: RAW-Blue IRF3 ISG reporter macrophages; experiment: IRF3 induction in RAW-Blue IRF3-SEAP reporter macrophages after 2′,3′-cGAMP transfection (QUANTI-Blue); format: cell-based, mouse; settings: 165 µM E-3 plus 1 nM 2′,3′-cGAMP, 24 h
# [5] = tested on: primary human monocyte-derived macrophages (hMDMs); experiment: IFN-β release by human monocyte-derived macrophages after 2′,3′-cGAMP transfection (ELISA); format: cell-based
# [6] = biological target: T2, M.tb CdnP; format: biochemical
# [7] = Chlorocebus sabaeus, Vero, 48 h, Vero cell growth inhibition, 48 h then resazurin overnight, read-out: IC50 Vero cells
# [8] = Vero cell growth inhibition, 48 h then resazurin overnight, read-out: IC50 Vero cells
# [9] = Vero cell growth inhibition, 48 h then resazurin overnight
# [10] = 1 nM 2′,3′-cGAMP in the presence of 165 µM E-3, 24 h
# T2 sequence (P71615 whole entry, looked up): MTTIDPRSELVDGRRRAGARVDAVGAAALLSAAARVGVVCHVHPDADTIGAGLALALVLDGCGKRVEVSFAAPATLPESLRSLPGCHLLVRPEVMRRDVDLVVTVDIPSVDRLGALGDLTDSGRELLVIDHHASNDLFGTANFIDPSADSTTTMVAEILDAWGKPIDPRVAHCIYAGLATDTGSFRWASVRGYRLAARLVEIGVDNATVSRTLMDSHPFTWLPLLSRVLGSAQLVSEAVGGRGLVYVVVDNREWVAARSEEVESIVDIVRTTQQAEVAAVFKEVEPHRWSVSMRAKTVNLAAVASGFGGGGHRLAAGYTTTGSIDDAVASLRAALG
compound,measurement,setting,value
NC1CC2NC3CCCCC3NC2CC1N (stereo not drawn) [Inhibitor E-37],IC50,[1],44.6 µM
same,IC50,"[2]; Chlorocebus sabaeus, Vero, 48 h, read-out: IC50 Vero cells, Vero cell growth inhibition, 48 h then resazurin overnight",> 100 µg/mL
same,IC50,"[2]; read-out: IC50 Vero cells, Vero cell growth inhibition, 48 h then resazurin overnight",> 446 µM
CC(OCCCCOC(C)n1cnc2c(=O)nc[nH]c21)n1cnc2c(=O)nc[nH]c21 (stereo not drawn) [Inhibitor C-13],IC50,[3]; IC50 CdnP,9.66 µM and 9.65 µM
same,IC50,[1],> 241 µM
same,IC50,[2]; [7],> 100 µg/mL
same,IC50,[2]; [8],> 241 µM
O=S(=O)(NN=c1nc(N2CCCC2)[nH]c(N2CCCC2)n1)c1ccccc1 [Inhibitor C-33],IC50,[3]; IC50 CdnP,18.8 µM and 18.7 µM
same,IC50,[1],60.5 µM and 60.3 µM
same,IC50,[2]; [7],> 100 µg/mL
same,IC50,[2]; [8],> 257 µM
O=C(C[N+]12CN3CN(CN(C3)C1)C2)c1ccc2ccccc2c1 [Inhibitor C-5],IC50 CdnP,[3],28.8 (11.2) µg/mL
same,IC50,[3]; read-out: IC50 CdnP,28.8 µM
same,IC50,[1],> 257 µM
same,IC50 ENPP1,[1],> 100 µg/mL
same,IC50 Vero cells,[2]; [9],60 µg/mL
same,IC50,[2]; [8],154 µM
NNc1nc(N2CCCCC2)c2[nH]cnc2n1 [Inhibitor C-76],IC50 CdnP,[3],42.9 (10) µg/mL
same,IC50,[3]; read-out: IC50 CdnP,42.9 µM
same,IC50,[1],> 429 µM
same,IC50 ENPP1,[1],> 100 µg/mL
same,IC50 Vero cells,[2]; [9],> 100 µg/mL
same,IC50,[2]; [8],> 429 µM
c1cc2c(cc1C(N1CCNCC1)N1CCNCC1)OCO2 [Inhibitor E-12],IC50,[1],41.1 µM
same,IC50 ENPP1,[1],12.5 µg/mL
same,IC50 Vero cells,[2]; [9],> 100 µg/mL
same,IC50,[2]; [8],> 329 µM
Cc1c2cc[n+](C)cc2c(COC2OC(CO)C(O)C2O)c2c3ccccc3n(C)c12 (stereo not drawn) [Inhibitor C-29],IC50,[3]; IC50 CdnP,14.2 µM
same,IC50,[1],19.4 µM
same,IC50,[2]; [7],> 100 µg/mL
same,IC50,[2]; [8],> 237 µM
Cc1ccc(Nc2nc(N)nc(Nc3ccc4ccccc4c3)n2)cc1 [Inhibitor E-3],IRF induction (SEAP signal),[4],1.1 A655 units
same,fold increased IRF signal versus cGAMP alone,[4],2.75 fold
same,IC50,[1],26.4 µM and 29.2 µM
same,IFN-β release,[5]; [10],95 pg/mL
same,fold increase in IFN-β release versus cGAMP alone,[5]; [10],2.1 fold
same,IFN-β release,"[5]; 165 µM E-3 alone, no cGAMP",10 pg/mL
same,IC50,[2]; [7],> 100 µg/mL
same,IC50,[2]; [8],> 264 µM
c-di-AMP,Km,[6],51.4 µM
same,Vmax for CdnP,[6],0.5664 µM/min
O=C(NNc1nc(NC2CCCCC2)nc(NC2CCCCC2)n1)c1ccccc1 [Inhibitor E-60],IC50,[1],9.8 µM and 9.77 µM
same,IC50,[2]; [7],> 100 µg/mL
same,IC50,[2]; [8],> 245 µM
Cc1ccc(S(=O)(=O)NN=c2nc(N3CCCC3)[nH]c(N3CCCC3)n2)cc1 [Inhibitor C-34],IC50,[3]; IC50 CdnP,13.1 µM
same,IC50,[1],63.3 µM and 63.4 µM
same,IC50,[2]; [7],> 100 µg/mL
same,IC50,[2]; [8],> 247 µM
O=C(Nc1n[nH]c(NC(=O)c2ccccc2)n1)c1ccccc1 [Inhibitor E-27],IC50,[1],16.3 µM
same,IC50,[2]; [7],> 100 µg/mL
same,IC50,[2]; [8],> 326 µM
